Assays:
rice = assay: Test C flooded paddy test; assay type: in vivo, Oryza sativa; details: for Plant response rating, Rice: 500 g ai/ha, visual rating after 12 to 14 days
Summary of the method: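 Postemergence sprays applied to plants 2 to 18 cm tall (1- to 4-leaf stage); paddy species grown to 2-leaf stage under flooding. After 12 to 14 days in greenhouse, visual rating versus untreated controls on 0–100 scale (0 no effect, 100 complete control).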

[1] = test system: smallflower umbrella sedge; assay: Test C flooded paddy test; assay type: in vivo, Cyperus difformis; details: for Plant response rating, Sedge, Umbrella: 500 g ai/ha, visual rating after 12 to 14 days
giant foxtail [2] = assay: Test C pre-/postemergence herbicide test; assay type: in vivo, Setaria faberi; details: preemergence
From the text: (§1) Seeds of plant species selected from bermudagrass (Cynodon dactylon (L.) Pers.), Surinam grass (Urochloa decumbens (Staph) R. D. Webster, previously named Brachiaria decumbens Stapf), cocklebur (Xanthium strumarium L.), corn (Zea mays L.), large crabgrass (Digitaria sanguinalis (L.) Scop.), woolly cupgrass (Eriochloa villosa (Thunb.) Kunth), giant foxtail (Setaria faberi Herrm.), goosegrass (Eleusine indica (L.) Gaertn.), johnsongrass (Sorghum halepense (L.) Pers.), kochia (Kochia scoparia (L.) Schrad.), lambsquarters (Chenopodium album L.), morningglory (Ipomoea coccinea L.), eastern black nightshade (Solanum ptycanthum Dunal), yellow nutsedge (Cyperus esculentus L.), pigweed (Amaranthus retroflexus L.), common ragweed (Ambrosia elatior L.), soybean (Glycine max (L.) Merr.), common (oilseed) sunflower (Helianthus annuus L.) and velvetleaf (Abutilon theophrasti Medik.) were planted and treated preemergence with test chemicals formulated in a non-phytotoxic solvent mixture which included a surfactant.
(§2) At the same time, plants selected from these crop and weed species and also winter barley (Hordeum vulgare L.), blackgrass (Alopecurus myosuroides Huds.), canarygrass (Phalaris minor Retz.), chickweed (Stellaria media (L.) Vill.), downy bromegrass (Bromus tectorum L.), green foxtail (Setaria viridis (L.) Beauv.), Italian ryegrass (Lolium multiflorum Lam.), wheat (Triticum aestivum L.), wild oat (Avenafatua L.) and windgrass (Apera spica-venti (L.) Beauv.) were treated with postemergence applications of some of the test chemicals formulated in the same manner. Plants ranged in height from 2 to 18 cm (1- to 4-leaf stage) for postemergence treatments. Plant species in the flooded paddy test consisted of rice (Oryza sativa), smallflower umbrella sedge (Cyperus difformis L.), ducksalad (Heteranthera limosa (Sw.) Willd.) and barnyardgrass (Echinochloa crus-galli (L.) Beauv.) grown to the 2-leaf stage for testing. Treated plants and controls were maintained in a greenhouse for 12 to 14 days, after which time all species were compared to controls and visually evaluated. Plant response ratings, summarized in Table C, are based on a scale of 0 to 100 where 0 is no effect and 100 is complete control. A dash (-) response means no test result.

common ragweed = assay: Test C pre-/postemergence herbicide test; assay type: in vivo, Ambrosia elatior; set-up: key to Plant response rating, Ragweed: 0 = no effect, 100 = complete control; details: preemergence
From the text: as §1, §2

johnsongrass = assay: Test C pre-/postemergence herbicide test; assay type: in vivo, Sorghum halepense; details: preemergence
From the text: as §1, §2

corn = assay: Test C pre-/postemergence herbicide test; assay type: in vivo, Zea mays; details: preemergence
From the text: as §1, §2

giant foxtail [3] = assay: Test A pre-/postemergence herbicide test; assay type: in vivo, Setaria faberi
Summary of the method: (§3)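 Greenhouse injury scoring (0–100, complete control = 100) at approximately ten days follows simultaneous pre- and postemergence application. Soil received a directed spray after seeding; seedlings of 2–10 cm at the one- to two-leaf stage were sprayed to runoff.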

barnyardgrass = assay: Test A pre-/postemergence herbicide test; assay type: in vivo, Echinochloa crus-galli
Summary of the method: as §3

large crabgrass = assay: Test A pre-/postemergence herbicide test; assay type: in vivo, Digitaria sanguinalis
Summary of the method: as §3

[4] = 62 g ai/ha, scale 0 to 100 (0 no effect, 100 complete control)
[5] = 125 g ai/ha, scale 0 to 100 (0 no effect, 100 complete control)
[6] = 250 g ai/ha, scale of 0 to 100, 0 is no effect, 100 is complete control
[7] = scale 0 to 100 (0 no effect, 100 complete control)
[8] = 125 g ai/ha, scale 0 (no effect) to 100 (complete control), visual, 12 to 14 days
[9] = 500 g ai/ha, scale 0 to 100 (0 no effect, 100 complete control), visual, 12 to 14 days
[10] = Postemergence, 500 g ai/ha, 0 to 100 scale, 0 no effect, 100 complete control
[11] = Postemergence, 2000 g ai/ha, 0 to 100 scale, 0 no effect, 100 complete control
[12] = Preemergence, 2000 g ai/ha, visual rating, 0 to 100 scale (0 no effect, 100 complete control)
[13] = preemergence, 500 g ai/ha, visual injury, 0 to 100 scale (0 no effect, 100 complete control)

| SMILES | Rice plant response rating (rice; [5]) | Rice plant response rating (rice; [6]) | Plant response rating, Rice (rice; [7]) | Sedge, Umbrella plant response rating [1, 5] | Sedge, Umbrella plant response rating [1, 6] | Plant response rating, Sedge, Umbrella [1, 7] | Rice plant response rating (rice; 62 g ai/ha, scale 0 to 100) | Sedge, Umbrella plant response rating ([1]; 62 g ai/ha, scale 0 to 100) | Foxtail, Giant plant response rating (giant foxtail [3]; [10]) | Plant response rating, Foxtail, Giant (giant foxtail [3]; [11]) | Foxtail, Giant plant response rating (giant foxtail [3]; [12]) | Foxtail, Giant plant response rating (giant foxtail [3]; [13]) | Barnyardgrass plant response rating (barnyardgrass; [10]) | Plant response rating, Barnyardgrass (barnyardgrass; [11]) | Barnyardgrass plant response rating (barnyardgrass; [12]) | Barnyardgrass plant response rating (barnyardgrass; [13]) | Crabgrass, Large plant response rating (large crabgrass; [10]) | Plant response rating, Crabgrass, Large (large crabgrass; [11]) | Crabgrass, Large plant response rating (large crabgrass; [12]) | Crabgrass, Large plant response rating (large crabgrass; [13]) | also measured |
| --- | --- | --- | --- | --- | --- | --- | --- | --- | --- | --- | --- | --- | --- | --- | --- | --- | --- | --- | --- | --- | --- |
| CCn1nc(C(C)(C)C)cc1C(=O)Nc1cc(C(=O)N(C)OC)ccc1F [Compound 244] | 70 | 75 | 75 | 65 | 70 | 85 | – | – | – | – | – | – | – | – | – | – | – | – | – | – | Rice plant response rating (rice; [4]): 40; Sedge, Umbrella plant response rating [1, 4]: 20; Plant response rating, Foxtail, Giant (giant foxtail [2]; 62 g ai/ha, scale 0 to 100): 80; Plant response rating, Foxtail, Giant (giant foxtail [2]; [8]): 95; Plant response rating, Foxtail, Giant (giant foxtail [2]; 250 g ai/ha, scale 0-100): 95; Plant response rating, Foxtail, Giant (giant foxtail [2]; [9]): 100; Plant response rating, Ragweed (common ragweed; 62 g ai/ha, scale 0 to 100): 95; Plant response rating, Ragweed (common ragweed; 250 g ai/ha, scale 0-100): 100; Plant response rating, Ragweed (common ragweed; [9]): 100; Plant response rating, Johnsongrass (johnsongrass; 62 g ai/ha, scale 0 to 100): 60; Plant response rating, Johnsongrass (johnsongrass; [8]): 95; Plant response rating, Johnsongrass (johnsongrass; 250 g ai/ha, scale 0-100): 95; Plant response rating, Johnsongrass (johnsongrass; [9]): 100; Plant response rating, Corn (corn; 62 g ai/ha, scale 0 to 100): 0; Plant response rating, Corn (corn; [8]): 10; Plant response rating, Corn (corn; 250 g ai/ha, scale 0-100): 10; Plant response rating, Corn (corn; [9]): 45 |
| CCn1nc(C(C)(C)C)cc1C(=O)Nc1nc(C(=O)N2CC=CC2)ccc1F [Compound 281] | 0 | 15 | 50 | 20 | 40 | 90 | 0 | 15 | 0 | 25 | 75 | 60 | 30 | 65 | 75 | 60 | 5 | 10 | 65 | 20 | – |
| C#CCNC(=O)c1cc(NC(=O)c2cc(C(C)(C)C)nn2CC)ccn1 [Compound 283] | 0 | 0 | 0 | 0 | 0 | 0 | 0 | 0 | 10 | 25 | 50 | 10 | 10 | 35 | 30 | 0 | 10 | 10 | 90 | 15 | – |
| CCn1nc(C(C)(C)C)cc1C(=O)Nc1cncc(C(=O)N2CC=CC2)n1 [Compound 290] | 0 | 15 | 45 | 25 | 65 | 70 | 0 | 0 | 15 | 70 | 90 | 50 | 55 | 70 | 90 | 40 | 10 | 10 | 25 | 5 | – |
| C#CCNC(=O)c1cccc(NC(=O)c2sc(C(C)(C)C)nc2CC)c1 [Compound 319] | 35 | 35 | 70 | 35 | 70 | 80 | 0 | 20 | 0 | 40 | 80 | 55 | 10 | 60 | 80 | 55 | 10 | 50 | 100 | 85 | – |
| CCN(C(C)=O)C(=O)c1ccc(F)c(NC(=O)c2cc(C(C)(C)C)nn2CC)c1 [Compound 413] | 45 | 55 | 70 | 50 | 75 | 75 | 35 | 10 | 10 | 35 | 90 | 65 | 20 | 50 | 75 | 60 | 10 | 15 | 70 | 40 | – |

Source: US20060069132A1, “Azolecarboxamide herbicides” (priority 2004, published 2006)
